Test results from US10945971B2, “Sphingosine kinase type 1 inhibitors and uses thereof” (Enzo Therapeutics, Inc., priority 2008, dated 2021).

Legend:
LN229 cells = type: cell-based; settings: LN229, combined with SK1-I
Description: (§1) Cells were plated at 10,000 cells/well in 48-well plates and allowed to attach for 24 h. Cell proliferation was measured at the indicated times with WST-1 and absorbance was measured in a plate reader at 450 nm with background subtraction at 630 nm. Cell death was detected by trypan blue exclusion assays in which the percent of blue dye incorporating cells were determined using a light microscope and a hemacytometer as described (Yacoub et al. Mol Cancer Ther 7:314-329, 2008). Apoptotic cell death was measured by staining cell nuclei with the Hoechst dye bisbenzimide and apoptotic cells were identified by condensed, fragmented nuclear regions as described previously (Sankala et al. Cancer Res 67:10466-10474, 2007). A minimum of 300 cells was scored.

U373 cells = assay: Modulation of SK1-I lethality by signaling inhibitors, U373 cells; type: cell-based, human; settings: U373, combined with SK1-I
Description: as §1

Row | SMILES | effect on SK1-I lethality (LN229 cells) | effect on SK1-I lethality (U373 cells)
1 | N#CC(=C(/N)Sc1ccccc1N)/C(C#N)=C(\N)Sc1ccccc1N [U0126] | enhanced | enhanced
2 | Oc1ccc(-c2nc(-c3ccncc3)c(-c3ccc(F)cc3)[nH]2)cc1 [SB202190] | enhanced | enhanced
